{
  "source": "patent US12343319B2",
  "about": "“Compositions and methods for treatment of diseases and disorders” (Atai Therapeutics Inc., priority 2023, dated 2025)",
  "key": {"[1]": {"tested_on": "Male WKY rats", "assay": "Sleep-wake behavior, EEG power, body temperature and locomotor activity in WKY rats", "format": "in vivo, rat", "protocol": "Male WKY rats (n=7, 289-388 g at the start of dosing) were housed in groups of 2-3 animals per cage with standard housing conditions. For implantation of the EEG electrodes and radio transmitter, the animals were anesthetized with isoflurane (2-5% in oxygen at 11/min) throughout the procedure. The scalp, neck and right flank were cleared of hair using clippers and cleaned using diluted Hibitane (chlorhexidine, 50% (v/v) in water). A non-steroidal anti-inflammatory agent was administered (carprofen 5 mg/kg, s.c.) and the animals placed on a homeothermic blanket (37° C.) with the head fixed in a stereotaxic frame. Incisions were made in the scalp and neck, as well as in the right flank. Blunt dissection of the abdominal muscle was then made to gain access to the peritoneal cavity. A radio transmitter (HD-S02, Data Sciences International) was implanted in the peritoneal cavity and secured to the muscle wall with non-absorbable sutures. The wires of the transmitter were passed using a 19G needle through the muscle wall and then sub-dermally to the scalp to act as Electroencephalogram (EEG)/Electromyograph (EMG) electrodes. The scalp was cleared of connective tissue and two craniotomies were made with a trepanning drill (fronto-parietal coordinates; Bregma+2 mm anterior, midline+1.0 mm lateral and Lambda 0 mm, +1.5 mm lateral). The positive EEG electrode was attached to the anterior craniotomy and the negative EEG electrode to the posterior craniotomy. Both electrodes were secured in place using a suitable adhesive agent (cyanoacrylate gel, RS components). A second set of electrodes were sutured into the nuchal muscle to act as EMG electrodes. All incisions were closed using absorbable suture.\nAll animals were allowed to recover in a warm environment and given 5 ml of saline subcutaneously (s.c.). Animals were kept singly in the cage until the next day, then pair housed for the duration of post-surgical recovery (minimum 7 days). During the recovery period, the rats received 5 days of standard post-operative care with no further experimental procedures until the pre-operative body weight was regained. The animals were maintained on a 12/12 hour light dark cycle (08:00 am lights on) after the surgery. Home cages and post-operative cages contained bedding and nesting material, along with environmental enrichment such as wooden chew-sticks and plastic tunnels.\nOn test days, ˜60 minutes after lights-on, animals were placed in recording boxes similar to their home-cages, except that environmental enrichment was restricted to a large bundle of nesting and bedding material, to avoid interference with the telemeter signals. Then, data acquisition was initiated for confirmation of signal quality. EEG and EMG data were acquired using intraperitoneal HD-S02 transmitters (DSI, New Brighton, MN) and Spike2 software (CED). EEG and EMG signals were digitized 500 samples/second, amplified 1000× and bandpass filtered at 0.5-100 Hertz (Hz). After 60 minutes of habituation, each animal was briefly removed from its box and dosed via the intraperitoneal (i.p.) route in a volume of 2 mL/kg. Test conditions included saline vehicle, psilocybin (10 mg/kg) positive control, compound 2-1 at 3, 10 and 30 mg/kg and compound 2-2 at 10, 17 and 30 mg/kg. Doses were based on the molecular weight of the free bases. compound 2-1 and compound 2-2 dosing solutions were prepared in 40% (w/v) hydroxypropyl-beta-cyclodextrin. After dosing, animals were immediately put back into the recording boxes, the experimenter left the room, and recordings continued uninterrupted for 23 hours. At the end of the recording session, the transmitters were turned off and the animals were returned to their home cages. All animals received all treatment conditions in a pseudo randomized cross-over fashion with a minimum washout period of 7 days between doses.\nAll data was aligned to zero (the time of dosing), with epochs defined as non-overlapping 10-second time segments. […]"}, "[2]": {"tested_on": "Male Sprague-Dawley rats", "assay": "Rat forced swim test, immobility frequency", "format": "in vivo", "conditions": "3 and 30 mg/kg, i.p. at 23.5, 16 and 0.5 hours prior; 5-minute swim test", "protocol": "Male Sprague-Dawley rats were placed individually in clear acrylic swim chambers (40 cm height×20.3 cm diameter) filled to 16 cm for a 15-minute pre-swim session on day 1 and filled to 30 cm for a 5-minute swim test session 24 hours later. Rats (n=10 per treatment group) were administered compound 2-1 (3, 10, 30 mg/kg, i.p., 1 mL/kg, based on weight of the free base) or vehicle (40% (w/v) 2-HPBCD in water, i.p.) at 23.5, 16 and 0.5 hours prior to the swim test. The rapid-acting antidepressant, ketamine (10 mg/kg, i.p.), was included in the study as a positive control condition and injected once 24 hours prior to the swim test."}, "[3]": {"conditions": "male WKY rats, IP, initial 4 hours following dosing"}, "[4]": {"conditions": "over 6 hours post dose, WKY rats, IP"}},
  "data": [
    {"smiles": "COc1ccc(OC)c(CCNCc2cc(C)cc(Cl)c2)c1", "note": "[Compound 2-1, N-(3-chloro-5-methylbenzyl)-2-(2,5-dimethoxyphenyl)ethan-1-amine]", "values": [
      {"measurement": "non-REM sleep amount vs vehicle", "setting": "[1]; 3 mg/kg i.p., interval starting at 5 hours post dose", "result": "significantly increased"},
      {"measurement": "latency to non-REM (NREM) sleep vs vehicle", "setting": "[1]; 10 mg/kg i.p.", "result": "significantly increased"},
      {"measurement": "persistence of significant effect on delta power during non-REM sleep", "setting": "[1]; 30 mg/kg i.p.", "result": "persisted through the period starting at 4 hours post dose"},
      {"measurement": "high gamma power during waking", "setting": "[1]; 30 mg/kg i.p., over 24 hours post dose", "result": "significant and lasting decrease"},
      {"measurement": "amount of time spent in wake vs vehicle", "setting": "[1]; 3, 10 and 30 mg/kg i.p.", "result": "significantly increased"},
      {"measurement": "amount of time spent in non-REM sleep vs vehicle", "setting": "[1]; 3, 10 and 30 mg/kg i.p., first 3 hours after administration", "result": "significantly decreased"},
      {"measurement": "low frequency (delta and theta) power during non-REM sleep", "setting": "[1]; 3, 10 and 30 mg/kg i.p., post-dose period 0-2 hours", "result": "significantly decreased"},
      {"measurement": "latency to REM sleep vs vehicle", "setting": "[1]; 10 and 30 mg/kg i.p.", "result": "significantly increased"},
      {"measurement": "amount of time spent in REM sleep vs vehicle", "setting": "[1]; 10 and 30 mg/kg i.p., starting in the third hour post dose", "result": "significantly decreased"},
      {"measurement": "waking high gamma power", "setting": "[1]; [3]", "result": "decreased"},
      {"measurement": "waking theta and beta power", "setting": "[1]; [3]", "result": "significantly increased"},
      {"measurement": "body temperature", "setting": "[1]; [4]", "result": "↓ (for 6 h)"},
      {"measurement": "frequency of immobility compared to vehicle", "setting": "[2]", "result": "significantly decreased"}
    ]},
    {"smiles": "COc1ccc(OC)c(CCNCc2cc(C)cc(F)c2)c1", "note": "[Compound 2-2, 2-(2,5-dimethoxyphenyl)-N-(3-fluoro-5-methylbenzyl)ethan-1-amine]", "values": [
      {"measurement": "effects on body temperature and locomotor activity", "setting": "[1]; male WKY rats", "result": "minimal effects"},
      {"measurement": "Locomotor activity", "setting": "[1]; [4]", "result": "No Δ (No significant change)"}
    ]}
  ]
}
